This is an account of results in PubChem BioAssay (NCI).

“And” between values parts separate entries of the source, which are not always exact repeats. Equal values may be shown once.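 Method: 48-hour compound exposure of cells in 96-well plates, five concentrations, linear interpolation of endpoints. GI50 is the concentration that inhibits growth by half. The concentration for full growth arrest is given as TGI.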

Common to all, as to assay: NCI tumour cell line growth inhibition, 48 h
Experiment [1] deals with HOP-18 NSCLC.
In experiment [2] the test system is LXFL 529 NSCLC.
Experiment [3] deals with M19-MEL melanoma.
Experiment [4] relates to RXF-631 renal.
In experiment [5] the test system is SNB-78 CNS.
Experiment [6] concerns MDA-N.
Experiment [7] relates to DMS 273 small cell lung.

As for `CC1=C(C(=O)Nc2ccccc2C)C(c2ccccc2C)C(C(=O)Nc2ccccc2C)=C(C)N1`, the TGI in experiment [1] was 37 µM; in experiment [2], more than 10 µM; in experiment [3] it was 66.7 µM; in experiment [4] it was more than 100 µM; in experiment [5], more than 100 µM.
As to `COc1ccc(C=C2C(=O)NC(=O)NC2=O)cc1OCc1ccccc1`, in experiment [6], the GI50 is 14.8 µg/mL and the TGI worked out at 32.7 µg/mL.
Regarding `O=C(O)C1CC2CC(=O)C1C2` (centres undefined), the TGI in experiment [7], in experiment [1], in experiment [2], in experiment [3], in experiment [4] and in experiment [5] was more than 100 µM throughout.
With `O=c1[nH]c2c(c3ccccc13)CCc1ccccc1-2`, the TGI in experiment [7], in experiment [2], in experiment [3] and in experiment [5] was more than 100 µM each time.
For `COc1cc2c3cc1Oc1c(OC)c(OC)cc4c1C(Cc1ccc(cc1)Oc1cc(ccc1O)CC3N(C)CC2)N(C)CC4` (centres undefined), the TGI in experiment [1] is more than 100 µM; in experiment [2], 27.8 µM; in experiment [3], 24.2 µM; in experiment [6] it was 17 µM; in experiment [5] it was 64.6 µM.
Take `Cc1ccc(Nc2nc(C)c(C(/C=C/c3ccc4c(c3)OCO4)=N/Nc3ccc([N+](=O)[O-])cc3[N+](=O)[O-])s2)c([N+](=O)[O-])c1`: the TGI in experiment [7] is more than 100 µM; in experiment [1], 63.7 µM; in experiment [2] it was more than 100 µM; in experiment [3] it was more than 100 µM; in experiment [4] it was more than 100 µM; in experiment [5] it was more than 100 µM.
Consider `CC1CC(=O)c2c(ccc3c2C(=O)c2cccc(O)c2C3=O)C1` (centres undefined), for which the TGI in experiment [7] amounted to 18.5 µM; in experiment [1] it was 21.2 µM; in experiment [2] it was 14.1 µM; in experiment [3], 4.96 µM; in experiment [4], 29.8 µM; in experiment [5], 45.7 µM.
On to `Cc1cccc(N=C2NC(=O)C(CC(=O)Nc3ccccc3Cl)S2)c1` (centres undefined), for which the TGI in experiment [7], in experiment [2], in experiment [3], in experiment [4] and in experiment [5] was more than 100 µM in each case.
For `CCN(CC)CCC(=O)O[C@H]1CC[C@H](CC(C)[C@H]2CC(=O)C(C)C=C(C)[C@H](OC(=O)CCN(CC)CC)C(OC)C(=O)[C@@H](C)CC(C)/C=C/C=C/C=C(C)C(OC)CC3CC[C@H](C)[C@](O)(O3)C(=O)C(=O)N3CCCCC3C(=O)O2)CC1OC` (some centres undefined), the TGI is 2.32 µM in experiment [7]; 3.35 µM in experiment [1]; 1.74 µM in experiment [2]; 4.38 µM and 2.12 µM in experiment [6]; 1.7 µM in experiment [5]. In experiment [6], the GI50 is 1.96 µM.
With `NC(=O)N/N=C(\CCC(=O)N(Cc1ccccc1)Cc1ccccc1)CC(=O)c1ccc(F)cc1`, the TGI in experiment [1], in experiment [2], in experiment [3], in experiment [4] and in experiment [5] was more than 100 µM in each case.
In the case of `O=C1C=C(OCCCl)C(=O)c2c(O)ccc(O)c21`, in experiment [6], the GI50 is 0.236 µM; the TGI is 0.29 µM and 0.539 µM.
As for `COc1ccc(/C=N\O[Si](C)(C)C(C)(C)C)cc1O[Si](C)(C)C(C)(C)C`, the TGI came to 34.1 µM in experiment [7]; 31.1 µM in experiment [1]; 29.9 µM in experiment [2]; 36.5 µM in experiment [3]; 37.4 µM in experiment [4]; 36.1 µM in experiment [5].
For the compound `COc1cc(-c2oc3c(OC)c(O)cc(O)c3c(=O)c2OC)ccc1O`, the TGI in experiment [6] is 59.5 µM.
On to `NNC(=S)N/N=C(/C(=O)Nc1ccc([N+](=O)[O-])cc1)c1nc2ccc([N+](=O)[O-])cc2[nH]c1=O`, for which the TGI in experiment [1], in experiment [3] and in experiment [5] was more than 100 µM in each case.
The compound `CN(C)C(=S)SCC(N)=O` came in with a TGI in experiment [6] of more than 100 µM.
With `O=C(CC(=O)c1ccccc1)C(=O)NC12CC3CC(CC(C3)C1)C2`, the TGI in experiment [7] is more than 70.2 µM; in experiment [1] it was more than 100 µM; in experiment [2], more than 100 µM; in experiment [3] it was more than 100 µM; in experiment [5], more than 100 µM.
Consider `O=C(CC(=O)C1CCOC1=O)C(=O)Nc1ccc(Cl)cc1` (centres undefined), for which the TGI in experiment [7], in experiment [2], in experiment [3], in experiment [4] and in experiment [5] was more than 100 µM in each case.
In experiment [6], `Cn1c2ccccc2c2[nH]c3ccccc3c(=O)c21` had a TGI of more than 100 µM.
The same measure, in the same setting: as for `CN(C)CC1=Nc2cccc3cccc(c23)N1`, the figure is 35 µM; as for `Cc1ccc([N+](=O)[O-])c2c(NCCC[N+](C)(C)[O-])ccnc12`, more than 100 µM.
As for `O=C1NN=C(c2ccc([N+](=O)[O-])cc2)C1n1nc(-c2ccccc2)c2ccccc2c1=O` (centres undefined), the TGI is more than 68.3 µM in experiment [7]; more than 100 µM in experiment [1]; more than 100 µM in experiment [2]; more than 100 µM in experiment [3]; more than 100 µM in experiment [4]; more than 100 µM in experiment [5].
In the case of `COc1cc2c(Cc3cc(OCc4ccccc4)ccc3N)nccc2c(OC)c1OC`, the TGI in experiment [7], in experiment [1], in experiment [2], in experiment [3], in experiment [4] and in experiment [5] was more than 10 µM throughout.
Consider `COC(=O)c1nc(N)nc(C(=O)OC)c1C(=O)c1ccccc1`, for which the TGI in experiment [1], in experiment [2], in experiment [3] and in experiment [4] was more than 100 µM throughout.
For the compound `COC(=O)C1=C(c2ccc(Cl)cc2)C(O)N=C(NN)N1` (centres undefined), the TGI in experiment [1], in experiment [2], in experiment [3], in experiment [4] and in experiment [5] was more than 100 µM throughout.
`CC1=NN(c2ccccc2)C(=O)C1N=Nc1ccc(S(N)(=O)=O)cc1` (centres undefined): the TGI in experiment [6] is more than 100 µM.
Take `N#CC(C(=O)CCC(=O)Nc1ccc(Cl)c(Cl)c1)c1ccc(Cl)cc1` (centres undefined): the TGI in experiment [7], in experiment [1], in experiment [2], in experiment [3], in experiment [4] and in experiment [5] was more than 100 µM each time.
For the compound `OC1c2ccccc2C2C(O)c3ccccc3C12` (centres undefined), the TGI in experiment [7], in experiment [1], in experiment [2], in experiment [3] and in experiment [4] was more than 100 µM in each case.
Regarding `COc1cc2nncc(SCc3ccc(Cl)c(Cl)c3)c2cc1OC`, the TGI in experiment [7], in experiment [1], in experiment [2], in experiment [3], in experiment [6] and in experiment [4] was more than 100 µM in each case. In experiment [5], this compound gave a TGI of more than 100 µM.
Take `c1ccc2c(CN3CCC(C4CCN(Cc5cccc6ccccc56)CC4)CC3)cccc2c1`: the TGI in experiment [7] is 22.9 µM; in experiment [1] it was more than 100 µM; in experiment [2] it was 21.8 µM; in experiment [3], 20.7 µM; in experiment [6], 25.2 µM; in experiment [4] it was 35.5 µM. The TGI in experiment [5] came to 73.7 µM.
Regarding `CC(=O)O[C@H]1CC[C@@]2(C)C(=C/C(=N\[N+](=O)[O-])[C@H]3C4CCC([C@H](C)CCCC(C)C)[C@@]4(C)CCC32)C1` (some centres undefined), the TGI in experiment [7], in experiment [2] and in experiment [3] was more than 100 µM each time.
On to `CC(=O)O/N=C/c1cc2c(cc1Br)OCO2`, for which the TGI in experiment [7], in experiment [2] and in experiment [3] was more than 349 µM throughout.
As to `CCSC(=O)C1(C)OC2CCCCC2C1=O` (centres undefined), the TGI in experiment [7], in experiment [1], in experiment [2], in experiment [3] and in experiment [5] was more than 100 µM in each case.
In experiment [6], `O=C1NC(c2ccccc2)N=C2Oc3ccccc3C=C12` (centres undefined) gave a TGI of 1.12 µM.
`CC1(C)N=C(Oc2ccccc2)n2nccc2N1`: the TGI in experiment [7], in experiment [1], in experiment [2] and in experiment [3] was more than 100 µM in each case.
`O=c1cc(-c2ccc(O)cc2)oc2cc(O)cc(O)c12`: the TGI is 40.2 µM in experiment [7], 37.3 µM in experiment [2], more than 100 µM in experiment [3] and 39.5 µM in experiment [5].
For the compound `COC1(Cc2ccccc2)C(=O)c2ccccc2N1C(C)=O` (centres undefined), the TGI in experiment [7], in experiment [1], in experiment [2], in experiment [3], in experiment [4] and in experiment [5] was more than 100 µM throughout.
On to `Nc1ccc(C2=Nc3ccccc3SC(c3ccccc3O)C2)cc1` (centres undefined), for which the TGI in experiment [7], in experiment [1], in experiment [2], in experiment [3] and in experiment [4] was more than 100 µM in each case.
Turning to `COC1OC(C(C)O)C2OC(C)(C)OC12` (centres undefined), the TGI in experiment [6] is more than 100 µM.
In the case of `Oc1ccc(Cn2c(-c3ccc(O)cc3)nc3ccccc32)cc1`, the TGI in experiment [7], in experiment [2], in experiment [3], in experiment [6] and in experiment [4] was more than 100 µM each time.
In the case of `O=C(NC1C=Nc2ccccc2NC1=O)c1ccccc1Cl` (centres undefined), the TGI in experiment [7], in experiment [1], in experiment [2], in experiment [3], in experiment [4] and in experiment [5] was more than 100 µM throughout.
As for `CC#Cc1c(C#CC)c(OC)c2c(c1OC)C(=O)c1ccccc1C2=O`, the TGI in experiment [7], in experiment [2] and in experiment [3] was more than 100 µM in each case.
In the case of `CC(C)=CCc1cc(C2COc3cc4c(c(O)c3C2=O)C=CC(C)(C)O4)c(O)cc1O` (centres undefined), the TGI in experiment [6] came to 27.5 µM.
On the same count and under the same terms, as for `COc1ccc(OC)c(/C=N/N=C2\C(=O)Nc3c(Cl)cc(Cl)cc32)c1`, the figure is 40.9 µM.
Regarding `CC(C)c1cccc(C(C)C)c1NC(=O)C(=O)C1SC(=S)NC1=O` (centres undefined), the TGI in experiment [7], in experiment [1], in experiment [2], in experiment [3], in experiment [4] and in experiment [5] was more than 100 µM throughout.
For `CCCCCCCCCCCCCCCCCc1nnc(N)o1`, the TGI in experiment [7], in experiment [2], in experiment [3], in experiment [4] and in experiment [5] was more than 100 µM in each case.
On to `O=C1NN=CN2C(=O)CCC12` (centres undefined), for which the TGI in experiment [7], in experiment [2], in experiment [3], in experiment [4] and in experiment [5] was more than 100 µM throughout.
As to `O=C1OC(OC/C(Br)=C(/Br)COC2OC(=O)C(Cl)=C2Cl)C(Cl)=C1Cl` (centres undefined), in experiment [6], the TGI was 21.5 µM.
With `CCOC(=O)/C=C1\Oc2ccccc2C1(C)O` (centres undefined), the TGI in experiment [7], in experiment [1], in experiment [2], in experiment [3] and in experiment [5] was more than 100 µM each time.
Turning to `COC1C(O)C(C)OC(O[C@@H]2C[C@H]3CC[C@@H]4[C@H](CC[C@]5(C)[C@@H](C6=CC(=O)OC6)CC[C@]45O)[C@@]3(C)[C@H](O)C2)C1O` (some centres undefined), the TGI in experiment [6] stood at 0.0838 µM.
For `CCOC(=O)c1cn(CC)c2cc3c(cc2c1=O)SCS3`, the TGI in experiment [7], in experiment [1], in experiment [2], in experiment [3] and in experiment [4] was more than 100 µM throughout.
